Data from patent US20240327764A1, “Manufacturing a Distilled Spirit Based Functional Ingredient” (priority 2022, published 2024).

Key:
MAO B = molecular target: T1, MAO B (Homo sapiens, UniProt P27338); test: MAO B inhibitory activity assay (% inhibition); assay type: biochemical; conditions: terpene added at 0.5% (v/v) to Don Julio Añejo (40% ABV) versus 40% ethanol
T1 sequence (P27338 1-520): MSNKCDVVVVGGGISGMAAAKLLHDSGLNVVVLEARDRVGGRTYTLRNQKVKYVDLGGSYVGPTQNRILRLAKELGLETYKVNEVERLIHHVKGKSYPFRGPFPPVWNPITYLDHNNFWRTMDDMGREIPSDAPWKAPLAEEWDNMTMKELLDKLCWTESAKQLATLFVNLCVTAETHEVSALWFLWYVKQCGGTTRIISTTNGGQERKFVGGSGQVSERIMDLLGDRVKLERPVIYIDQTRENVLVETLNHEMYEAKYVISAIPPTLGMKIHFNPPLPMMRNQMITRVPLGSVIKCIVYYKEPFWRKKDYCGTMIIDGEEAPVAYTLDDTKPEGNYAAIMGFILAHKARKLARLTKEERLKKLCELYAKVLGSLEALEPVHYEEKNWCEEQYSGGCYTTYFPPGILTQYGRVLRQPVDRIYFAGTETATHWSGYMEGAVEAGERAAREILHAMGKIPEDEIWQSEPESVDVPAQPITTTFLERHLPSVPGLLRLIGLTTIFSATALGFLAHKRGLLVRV
Text: (§1) U.S. […] The contents of this document are incorporated herein by reference, but briefly, methods that include reverse osmosis and low-pressure evaporation to provide retentates with significant concentrations of these inhibitors are described. In addition, details of assay methods for monoamine oxidase activity (and therefore inhibition thereof) and for ethanol content are provided.

MAO A = molecular target: T2, MAO A (Homo sapiens, UniProt P21397); test: MAO A inhibitory activity assay (% inhibition); assay type: biochemical; conditions: terpene added at 0.5% (v/v) to Don Julio Añejo (40% ABV) versus 40% ethanol
T2 sequence (P21397 1-527): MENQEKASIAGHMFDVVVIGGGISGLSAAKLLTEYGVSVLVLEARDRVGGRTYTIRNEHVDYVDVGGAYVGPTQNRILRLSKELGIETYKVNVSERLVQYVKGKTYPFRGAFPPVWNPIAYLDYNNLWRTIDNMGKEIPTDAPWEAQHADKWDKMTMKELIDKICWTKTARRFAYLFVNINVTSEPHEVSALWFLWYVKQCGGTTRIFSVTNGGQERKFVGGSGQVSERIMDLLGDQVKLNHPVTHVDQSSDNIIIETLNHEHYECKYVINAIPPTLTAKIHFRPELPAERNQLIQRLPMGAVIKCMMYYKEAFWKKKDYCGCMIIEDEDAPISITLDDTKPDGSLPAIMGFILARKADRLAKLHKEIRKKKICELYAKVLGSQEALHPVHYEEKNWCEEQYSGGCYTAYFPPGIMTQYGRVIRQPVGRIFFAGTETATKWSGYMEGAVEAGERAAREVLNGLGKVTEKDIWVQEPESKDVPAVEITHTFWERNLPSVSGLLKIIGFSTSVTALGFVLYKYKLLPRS
Text: as §1

Δ % Inhibition MAO B (DJA + terpene) − (ETOH + terpene) (MAO B): 20%
Δ % Inhibition MAO A (DJA + terpene) − (ETOH + terpene) (MAO A): 9%
SMILES: C=C(C)[C@@H]1CCC2=CCC[C@@H](C)[C@]2(C)C1 [valencene]
